The text below walks through data of patent US11866695B2, “Methods and systems and related compositions for mixtures separation with a solid matrix” (CALIFORNIA INSTITUTE OF TECHNOLOGY, priority 2019, dated 2024).

Read-outs that look alike come from different tables or passages of the source.

The subject of one series is λ phage DNA. Put plainly: Zymo Quick-Viral DNA/RNA kit extraction with additional TPW, LAMP with 2× diluted eluent. The class given is biochemical. The procedure: LAMP reactions contained the following concentrations of reagents: 1× Isothermal Amplification Buffer (20 mM Tris-HCl pH 8.8, 10 mM (NH4)2SO4, 50 mM KCl, 5 mM MgSO4, 0.1% Tween-20, B0537S, NEB, Ipswich, Mass., USA), an additional 2 mM MgSO4 (B1003S, NEB), 1.4 mM deoxynucleotide mix (N0447L or N0446S, NEB), […] Invitrogen Syto-9 (S34854, Thermo Fisher Scientific), […] Invitrogen bovine serum albumin (15561020, Thermo Fisher Scientific), 320 U/mL WarmStart Bst 2.0 (M0538L, NEB), and were supplemented with nuclease-free water (not DEPC-Treated, 4387936, Thermo Fisher Scientific) up to 10 μL. LAMP primers (Integrated DNA Technologies (IDT), Coralville, Iowa, USA) were designed, ordered, and added at NEB's recommended concentrations of […] FIP/BIP, 0.2μM F3/B3, and […] LoopF/B.
Each 96-well plate was sealed and briefly spun. Heating and real-time imaging were performed on the Bio-Rad CFX-96 Touch Real-Time PCR Detection System (1855195, Bio-Rad). Each 96-well plate was cooled to 12° C. for 2 min, held at 68° C. for 47 min with 35-second fluorescence read intervals, and a melt-curve analysis was performed. For the E. coli DNA dilution experiment, the 68° C. step was held for 105 min. Time-to-positive (TTP) was determined when the software's automated baseline corrected fluorescence reached 1000 RFU.
Three different silica-column kits were tested, including: Zymo ZR Viral DNA/RNA Kit (outdated protocol, D7021), Zymo Quick-DNA/RNA Kit (updated protocol, D7021), and the QIAquick PCR Purification Kit (28104, Qiagen). For all silica-column kits, fresh collection tubes were used after each spin and centrifugation speeds were set to 16,000×g. Centrifugation was performed on either an Eppendorf 5415D centrifuge (Eppendorf, Hauppauge, N.Y., USA) or a Thermo Fisher Scientific AccuSpin Micro 17R centrifuge (13-100-676). It was noted that the QIAquick protocol calls for 17,900×g, but instead was run at 16,000×g which was the max speed for the Eppendorf 5415D. […]

Series [1] is described as follows: Phase separation of compounds mixed at a 1:1 volume ratio. Also on record: key: A “2” denotes phase separation into 2 distinct phases; a “1” forms a single phase. The class given is physicochemical.
Series [2] concerns qPCR spiked with 5×104 copies λ phage DNA. The format is biochemical. Particulars: 1 μL candidate in 11 μL total; for Avg Cq: N.D. = not detected within 40 cycles; for ΔCq: minus the No additive control. The procedure: Heating and real-time imaging were performed on the Bio-Rad CFX-96 Touch Real-Time PCR Detection System by heating to 95° C. for 5 min, cycling 40 times between 95° C. for 15 s, 60° C. for 15 s, and 72° C. for 20 s, and taking a melt-curve analysis. For the E. coli DNA dilution experiment, qPCR was run for 60 cycles. Fluorescence readings were taken at the end of each extension step. Quantification cycle (Cq) was determined when the software's automated baseline corrected fluorescence reached 200 RFU.
Criterion 1a was investigated directly by performing qPCR and LAMP reactions. Reactions were spiked with λ phage DNA, diluted up to 10 μL, and an additional 1 μL of different wash buffer candidates was added to a total of 11 μL. […] As an experimental control, a “No Additive” condition was tested, which was a 10 μL reaction with optimized reaction conditions and no inhibitors. To control for the effects of a 1 μL dilution on the reaction, a “Water” condition which was an 11 μL reaction with no inhibitors was also tested.

The conditions of series [3]: cited from earlier work.

As to `CCCCCCCCCCCO` [1-undecanol], the “reduction in TTP vs manufacturer protocol” value with λ phage DNA (2× eluent dilution) is recorded as 0.78 min. The TTP in the series on λ phage DNA (2× eluent dilution, 3 columns) worked out at 6.00 ± 0.04 min; in the series with λ phage DNA (all 27 wells), 10.23 ± 0.06 min. Besides, the Number of phases in series [1] (mixed 1:1 (volume) with Ethanol) stood at 1; in series [1] (mixed 1:1 (volume) with H2O), 2; in series [1] (mixed 1:1 (volume) with VWB (80% ethanol v/v)), 1. Further, in series [2], the “Avg Cq” value came out at 19.67 cycles. For the same compound, the ΔCq in series [2] is given as −0.42 cycles. The “Solubility of TPW Candidate in water” value in series [3] is listed as 0.0015 g/100 mL. Also, in series [3], the “Solubility of water in TPW Candidate” value was 3.4 g/100 g.

On to `CCO` [Ethanol, ethanol], for which, in series [2], the “Avg Cq” value amounted to 25.30 cycles and the ΔCq is 5.21 cycles. Further, in series [3] (in words), the “Solubility of TPW Candidate in water” value is recorded as “Miscible” and the “Solubility of water in TPW Candidate” value was “Miscible”.
